Two molecules from US20220071947A1, “PHARMACEUTICAL APPLICATION OF DIMYRICETIN-BASED DISELENIDE” (Shanghai Spark Pharmaceutical Co., Ltd., priority 2020, published 2022) can be followed below.

Values after ≈ are worked out from the molar mass of the structure shown. Where two headings read alike, the source gives them in different places.

Test [1] has as its target 2019-nCoV-M^pro protease (Severe acute respiratory syndrome coronavirus 2, UniProt P0DTD1). Put plainly: M^pro protease activity inhibition, fluorescence resonance energy transfer method. Format: biochemical. Particulars: 30 nM protease, 20 μM substrate, 10 min preincubation at 30° C. An excerpt:
This example was the detection of M^pro protease activity inhibition of the targeted 2019-nCoV virus.
The mechanism is: after the new coronavirus invades the cell, it will use the host cell to synthesize two ultra-long replicase polypeptides (pp1a and pp1ab) necessary for self-replication. The replicase polypeptide needs to be further cut into multiple proteins (such as RdRp, helicase, etc.), and then assembled into the replication and transcription machinery required for the virus to initiate the replication of its own genetic material. M^pro has at least 11 cleavage sites on the replicase polypeptide. […]
The fluorescence resonance energy transfer method was used to evaluate the inhibitory activity of dimyricetin-based diselenide on 2019-nCoV-M^pro protease.
Specific detection method: the volume of the entire enzymatic reaction system is 120 μL, the final concentration of protease is 30 nM, and the final concentration of substrate is 20 μM. […] The substrate was added and quickly placed in the microplate reader for reading. […] The test time is 10 min, and the fluorescence value is read every 30 seconds. The final result is the first 2 minutes reading to fit the reaction rate, and compared with the control group (DMSO) to calculate the inhibition rate.

Test [2] has as its system HEP3B2.1.7 human liver cancer cells. As to the kind of experiment: CCK-8 in vitro anti-tumor screening, human liver cancer cells. The format is cell-based. Particulars: HEP3B cells. Here is the method:
(§1) In vitro screening of the efficacy of dimyricetin-based diselenide on 7 different human tumor cells (HEP3B2.1.7, NCI-H460, CALU-3, SW480, SIHA, PC-3, MGC80-3) was performed. Using the CCK-8 detection method, 10 drug concentrations was designed, and each concentration was arranged in 3 re-holes. […], 24 h, 48 h, and 72 h, was selected according to dynamic microscopy. The positive drug was cisplatin. Cisplatin concentration gradient designed: 0 (i.e., the solvent control group), 1 μM, 5 μM, 10 μM, 20 μM, 40 μM, 60 μM, 80 μM, 100 μM, 135 μM. Dimyricetin-based diselenide drug concentration gradient designed: 0 (i.e., solvent control group), 1 μg/ml, 5 μg/ml, 25 μg/ml, 50 μg/ml, 75 μg/ml, 100 μg/ml, 125 μg/ml, 150 μg/ml, 200 μg/ml.
(§2) Step 1. Cell culture. […]
(§3) Step 3. […] Step 3-4, measuring the absorbance value: a microplate reader was used to measure the 450 nm absorbance value, and the inhibitory rate of the drug on the cells was calculated according to the formula. […]
(§4) Experimental group: the absorbance value of the cells and CCK-8 solution in the experimental group
(§5) Negative control: the absorbance value of control cells and CCK-8 solution
(§6) Blank control: absorbance value of medium and CCK-8 solution […]

Test [3] deals with SW480 primary colorectal cancer cells. As to the kind of experiment: CCK-8 in vitro anti-tumor screening, primary colorectal cancer cells. The format is cell-based, human. The protocol:
as §1, §2, §3, §4, §5, §6

Test [4] has as its system NCI-H460 human lung cancer cells (large cell lung cancer). Put plainly: CCK-8 in vitro anti-tumor screening, human lung cancer cells (large cell lung cancer). Format: cell-based. The protocol:
as §1, §2, §3, §4, §5, §6

Test [5] deals with MGC80-3(MGC-803) human gastric cancer cells. As to the kind of experiment: CCK-8 in vitro anti-tumor screening, human gastric cancer cells. The format is cell-based. Particulars: 24 h. Here is the method: as §1, §2, §3, §4, §5, §6
Test [6] has as its system Calu-3 human lung adenocarcinoma cells (pleural effusion). Put plainly: CCK-8 in vitro anti-tumor screening, human lung adenocarcinoma cells (pleural effusion). Format: cell-based. Particulars: calu-3 cells, 24 h. The protocol: as §1, §2, §3, §4, §5, §6
Test [7] concerns Siha human cervical squamous cell carcinoma cells. Put plainly: CCK-8 in vitro anti-tumor screening, human cervical squamous cell carcinoma cells. Format: cell-based. The protocol:
as §1, §2, §3, §4, §5, §6

Test [8] has as its system PC-3 human prostate cancer cells. Put plainly: CCK-8 in vitro anti-tumor screening, human prostate cancer cells. Particulars: pc-3 cells. The format is cell-based. The protocol:
as §1, §2, §3, §4, §5, §6

For the molecule `O=c1c(O)c(-c2cc(O)c(O)c(O)c2)oc2c([Se][Se]c3c(O)cc(O)c4c(=O)c(O)c(-c5cc(O)c(O)c(O)c5)oc34)c(O)cc(O)c12` [Dimyricetin-based diselenide, 8,8′-diselanediylbis(3,5,7-trihydroxy-2-(3,4,5-trihydroxyphenyl)-4H-1-benzopyran-4-one)], the IC50 in test [1] (read-out: IC50) was 0.807 ± 0.083 µM; in test [1] (read-out: IC50 (μg/ml) (converted)) it was 0.806 µM; in test [2] (Homo sapiens, 24 h), 25.2 µg/mL; in test [3] (Homo sapiens, 24 h), 12.4 µg/mL; in test [4] (Homo sapiens, NCI-H460, 24 h), 27.9 µg/mL; in test [5] (Homo sapiens, MGC-803, MGC803 cells), 9.08 µg/mL. Further, the IC50 was determined as 22.9 µg/mL (≈ 29 µM) in test [6]; 19.1 µg/mL in test [7] (Homo sapiens, 24 h); 7.72 µg/mL in test [8] (Homo sapiens, 24 h).
As to `N.N.[Cl][Pt][Cl]` [Cisplatin, cisplatin, reference compound], the IC50 came to 8.83 µM in test [2] (48 h); 46.7 µM in test [3] (48 h); 47.4 µM in test [4] (48 h); 23.2 µM in test [5] (MGC803 cells); 65.5 µM in test [7] (48 h); 45.7 µM in test [8] (48 h).
